Assay results taken from patent publication US20260234163A1, “NOVEL COMPOUNDS AND USES THEREOF” (ACELINK THERAPEUTICS, INC., priority 2023, published 2026).
Where two headings read alike, the source gives them in different places.

Tests used:
[1] = 21-membered ring

**Q.** Which ring closure, yield after HPLC ([1]; the molecule shown is the open-chain precursor, other bond, K2CO3 (microwave), DMF, 10.2 mM, 130.0 °C, 2 steps) does the source give for `CCOC(=O)CC(c1ccc2c(c1)CNCC2)c1ccc2c(nnn2CCCCCN2CCN(C(=O)Oc3ccc([N+](=O)[O-])cc3)CC2)c1C` (centres unmarked) here?
**A.** Its ring closure, yield after HPLC is 72%.

**Q.** Which ring closure, isolated yield (from CCOC(=O)CC(c1cc(C)c2c(c1)CNCC2)c1ccc2c(nnn2CCCOCc2ccc(C(=O)O)cc2)c1C, amide bond, 21-membered ring, HATU/DIEA, DMF, 131.5 mM, 20.0 °C, 2.0 h) does the source give for `CCOC(=O)CC1c2cc(C)c3c(c2)CN(CC3)C(=O)c2ccc(cc2)COCCCn2nnc3c(C)c1ccc32` (centres unmarked) here?
**A.** Its ring closure, isolated yield is 77.9%.

**Q.** For `CCOC(=O)CC1c2ccc(C)c(c2)CN(C)C(=O)c2ccc(cc2)COCCCn2nnc3c(C)c1ccc32` (centres unmarked), which ring closure, isolated yield (from CCOC(=O)CC(c1ccc(C)c(CNC)c1)c1ccc2c(nnn2CCCOCc2ccc(C(=O)O)cc2)c1C, amide bond, 21-membered ring, HATU/DIEA, DMF, 46.6 mM, 20.0 °C, 2.0 h) is on record?
**A.** The ring closure, isolated yield was 95.2%.

**Q.** With `CCOC(=O)CC1c2ccc3c(c2)CN(CC3)C(=O)C2CCN(CCCCCn3nnc4c(C)c1ccc43)CC2` (centres unmarked) as the compound, how does the ring closure, isolated yield (from CCOC(=O)CC(c1ccc2c(c1)CNCC2)c1ccc2c(nnn2CCCCCN2CCC(C(=O)O)CC2)c1C, amide bond, 21-membered ring, HATU/DIEA, DMF, 96.0 mM, 0.0 °C) read?
**A.** The ring closure, isolated yield was 79.5%.

**Q.** Which ring closure, isolated yield (from CCOC(=O)CC(c1ccc2c(c1)CNCC2)c1ccc2c(nnn2CCOCCN2CCC(C(=O)O)CC2)c1C, amide bond, 21-membered ring, HATU/DIEA, DMF, 142.0 mM, 25.0 °C) does the source give for `CCOC(=O)CC1c2ccc3c(c2)CN(CC3)C(=O)C2CCN(CCOCCn3nnc4c(C)c1ccc43)CC2` (centres unmarked) here?
**A.** Its ring closure, isolated yield is 38.2%.

**Q.** With `CCOC(=O)CC1c2ccc3c(c2)CN(CC3)S(=O)(=O)N2CCC(CC2)OCC=CCn2nnc3c(C)c1ccc32` (centres unmarked) as the compound, how does the ring closure, yield after HPLC ([1]; from C=CCOC1CCN(S(=O)(=O)N2CCc3ccc(C(CC(=O)OCC)c4ccc5c(nnn5C/C=C/C)c4C)cc3C2)CC1, rcm bond, Grubbs catalyst, DCM, 6.2 mM, 40.0 °C, 19.0 h) read?
**A.** The ring closure, yield after HPLC was 89.4%.

**Q.** For `CCOC(=O)CC1c2ccc3c(c2)CN(CC3)S(=O)(=O)c2ccc(cc2)OCCOCCn2nnc3c(C)c1ccc32` (centres unmarked), which ring closure, isolated yield (from CCOC(=O)CC(c1ccc2c(c1)CN(S(=O)(=O)c1ccc(O)cc1)CC2)c1ccc2c(nnn2CCOCCO)c1C, ether bond, 22-membered ring, DEAD/PPh3, DCM/THF, 28.8 mM, 20.0 °C, 4.0 h) is on record?
**A.** The ring closure, isolated yield was 73.6%.

**Q.** With `CCOC(=O)CC1c2cccc(c2)CN(C)C(=O)c2ccc(cc2)COCCCn2nnc3c(C)c1ccc32` (centres unmarked) as the compound, how does the ring closure, isolated yield (from CCOC(=O)CC(c1cccc(CNC)c1)c1ccc2c(nnn2CCCOCc2ccc(C(=O)O)cc2)c1C, amide bond, 21-membered ring, HATU/DIEA, DMF, 73.0 mM, 25.0 °C) read?
**A.** The ring closure, isolated yield was 58.2%.

**Q.** With `CCOC(=O)C[C@@H](c1ccc2c(c1)CNCC2)c1ccc2c(nnn2CCCOCC2CCN(C(=O)Oc3c(F)c(F)c(F)c(F)c3F)CC2)c1C` as the compound, how does the ring closure, yield after HPLC ([1]; the molecule shown is the open-chain precursor, other bond, K2CO3/microwave, DMF, 24.7 mM, 120.0 °C) read?
**A.** Its ring closure, yield after HPLC is 20.9%.

**Q.** With `COC(=O)CC1c2ccc3c(nnn3CCOCCOC3CCN(CC3)C(=O)c3ccc4c(c3)CN1CC4)c2C` (centres unmarked) as the compound, how does the ring closure, isolated yield (from COC(=O)CC(c1ccc2c(nnn2CCOCCOC2CCNCC2)c1C)N1CCc2ccc(C(=O)O)cc2C1, amide bond, 22-membered ring, HATU/DIEA, DMF, 35.4 mM, 20.0 °C, 2.0 h) read?
**A.** Its ring closure, isolated yield is 90.4%.

**Q.** Which ring closure, isolated yield (from Cc1c(C(CC(=O)OC(C)(C)C)c2ccc3ccc(C(=O)O)cc3c2)ccc2c1nnn2CCOCCN1CCNCC1, amide bond, 21-membered ring, HATU/DIEA, DMF, 72.0 mM, 25.0 °C, 19.0 h) does the source give for `Cc1c2ccc3c1nnn3CCOCCN1CCN(CC1)C(=O)c1ccc3ccc(cc3c1)C2CC(=O)OC(C)(C)C` (centres unmarked) here?
**A.** The ring closure, isolated yield was 19.5%.
